From patent US20140066411A1, “PHARMACEUTICAL COMPOSITIONS FOR EXTENDED RELEASE OF AZO-BONDED 5-AMINOSALICYLIC ACID COMPOSITIONS” (Depomed, Inc., priority 2012, published 2014)

Experiment: Dissolving of olsalazine in dissolution media
Assay type: physicochemical
Protocol: Formulation 4 tablets were also made using pharmaceutical grade olsalazine in a micronized form in order to test the effects of drug particle size on tablet manufacturing and the ensuing release profiles. In vitro release profiles were evaluated for Formulation 4 tablets made as described in Example 1 and for tablets made using the same formula and process except with micronized olsalazine.

With olsalazine the dissolving in media (pH 4.5 acetate buffer) was “did not completely dissolve” and the dissolving in media (pH 7.5 phosphate buffer) was “dissolves easily”.
